Activity calls are given as the source filed them. The calls are words filed in the database; no cut-off is given here.
How the values were obtained:
[1] = target: Polymerase acidic protein (Influenza A virus (A/Puerto Rico/8/1934(H1N1))) (UniProt P03433); assay: Inhibition of Influenza A/Perto Rico/8/34 (PR8) (H1N1) PAN (1 to 197) endonuclease activity expressed in Escherichia coli Rosetta (DE3) using M13mp18 as substrate at 100 uM after 60 mins by agarose gel elctrophoresis
[2] = Cytotoxicity against MDCK cells after 24 hrs by CellTiter 96 AQueous one solution cell proliferation assay; assay type: cell-based, Canis lupus familiaris; conditions: dog
[3] = system: unidentified influenza virus; assay: Antiviral activity against Influenza virus infected in MDCK cells assessed as viral RNA content incubated with cells for 30 mins prior to addition of 30 mins preincubated virus-compound mixture for 1 hr followed by 3 times compound washout and again cultured in compound containing virus growth medium for 24 hrs by RT-PCR analysis; assay type: functional, organism-based
[4] = target: Polymerase acidic protein (Influenza A virus (A/Puerto Rico/8/1934(H1N1)), UniProt P03433); assay: Inhibition of Influenza A/Perto Rico/8/34 (PR8) (H1N1) PA N-terminal domain (1 to 197) endonuclease activity expressed in Escherichia coli Rosetta (DE3) using (6-FAM)-AAT CGC AGG CAG CAC TC-(BHQ-1) as substrate measured every 50 secs for 30 mins by FRET assay
[5] = system: Influenza A virus; assay: Antiviral activity against Influenza A virus (A/PR8/34(H1N1)) infected in MDCK cells assessed as inhibition of viral replication after 24 hrs; assay type: functional, organism-based; conditions: A/Puerto Rico/8/1934(H1N1)
[6] = system: Influenza A virus; assay: Antiviral activity against Influenza A virus (A/Puerto Rico/8/1934(H1N1)) infected in MDCK cells after 24 hrs by immunofocus assay; assay type: functional, organism-based
[7] = target: Polymerase acidic protein (Influenza A virus (A/Puerto Rico/8/1934(H1N1)), UniProt P03433); assay: Inhibition of Influenza A/Puerto Rico/8/34 (H1N1) PA N-terminal domain endonuclease activity expressed in Escherichia coli BL21 (RIL) cells using (6-FAM)TGGCAATATCAGCTCCACA(MGBNFQ) as substrate by fluorescence assay

Oc1ccc(/C=N/Nc2ccc(Cl)cc2)c(O)c1O
inhibition [1]: Active | CC50 at 24 h [2]: > 200 µM | EC50 [3]: 14.4 µM | IC50 [4]: 8.3 µM

O=C(O)/C(O)=C/C(=O)C1(Cc2ccc(Cl)cc2)CCN(Cc2ccccc2)CC1
IC50 [5]: 0.35 µM

O=c1[nH]c(-c2ccc(F)cc2)c(-c2ccc(-c3nnn[nH]3)cc2)cc1O
EC50 [6]: 11 µM | IC50 [7]: 0.011 µM

O=C(COc1ccc(F)cc1)c1ccc(O)c(O)c1O
inhibition [1]: Active | CC50 at 24 h [2]: > 200 µM | EC50 [3]: 11.8 µM | IC50 [4]: 9.7 µM

O=Cc1cc(Cc2ccccc2Cl)cc([N+](=O)[O-])c1O
inhibition [1]: Active | CC50 at 24 h [2]: 74.1 µM | EC50 [3]: 11.5 µM | IC50 [4]: 63 µM

Source: ChEMBL document CHEMBL3600365, “Structural and computational study on inhibitory compounds for endonuclease activity of influenza virus polymerase” (Bioorg Med Chem, 2015)
